In patent publication US8343966B2, “Organic compounds” (Novartis AG, priority 2008, dated 2013) one finds IC50 data, which are given here for 26 molecules.

The assay addresses T1, human ALK5 (ALK5 T204D kinase domain) (Homo sapiens, UniProt P36897, T204D).
T1 construct: The kinase domain of human ALK5 (amino acids 200-503); made in house; host or cells: insect cells (baculovirus)
T1 sequence (P36897 200-503 T204D): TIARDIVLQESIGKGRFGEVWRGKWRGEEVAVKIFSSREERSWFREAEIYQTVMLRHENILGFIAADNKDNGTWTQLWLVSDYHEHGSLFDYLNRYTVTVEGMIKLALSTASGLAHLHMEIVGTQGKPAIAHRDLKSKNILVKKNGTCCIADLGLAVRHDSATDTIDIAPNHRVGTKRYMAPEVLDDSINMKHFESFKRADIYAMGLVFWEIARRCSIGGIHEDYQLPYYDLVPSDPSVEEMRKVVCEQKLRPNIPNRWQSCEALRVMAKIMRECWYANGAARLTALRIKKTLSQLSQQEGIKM
In words: ALK5 kinase assay, [33P] phosphate incorporation into casein. The assay is classed as biochemical. The settings on record: casein substrate, 1 μM unlabelled ATP. Here is the method:
The kinase activity of ALK5 is assessed by measuring radiolabelled phosphate [33P] incorporation in to the generic substrate, casein. The kinase domain of human ALK5 (amino acids 200-503) is fused to an N-terminal histidine tag. The kinase activity of ALK5 is rendered constitutive via point mutation at amino acid 204 (threonine to aspartate modification, ALK5 T204D) and the kinase construct is engineered to be expressed from a baculovirus expression construct in insect cells. The purified, recombinantly-expressed histidine-tagged ALK5 T204D protein is dissolved at 5.4 mg/ml in 50 mM Tris-HCl pH 8.0, 150 mM NaCl, 5 mM DTT. ALK5 T204D is dissolved to 2.5 μg/ml in assay buffer (Assay buffer: 20 mM Tris-HCl pH 7.4, 10 mM MgCl2, 2 mM MnCl2) on the day of use.
Test compounds and reference compounds are dissolved in assay buffer without DTT containing 5% (v/v) DMSO. Stock solutions of test and reference compounds are diluted in assay buffer with DTT (1.25 mM) containing 4.5% (v/v) DMSO. 10 μl of test or reference compound are added to the appropriate wells of 96 well U-bottomed plate. Total enzyme activity is determined by measuring ALK5 T204D activity in the absence of ALK5 kinase inhibitor reference compounds. Non-specific binding (NSB) is determined by measuring the activity of ALK5 T204D in the presence of ALK5 kinase inhibitor reference compounds. 10 μl of dephosphorylated casein stock solution (dephosphorylated casein is dissolved in ddH2O at 20 mg/ml) is added per well (200 μg/well final assay concentration). 20 μl of ALK5 T204D (2.5 μg/ml solution) is added per well (50 ng/well final assay concentration). The plates are left to incubate at room temperature for 10 minutes.
10 μl of ATP mix is added to the well to initiate the reaction (0.66 nM [^33P]ATP/1 μM unlabelled ATP/well final assay concentration). The ATP mix is prepared as follows, unlabelled ATP (3 mM) is dissolved in ddH2O and pH adjusted to 7.4. The stock concentration of [^33P]ATP is 10 μCi/μl. The appropriate volume of [^33P]ATP is added to unlabelled ATP solution such that the final assay concentration per well is 0.1 μCi. Following addition of the ATP mix, the plates are incubated at room temperature for 50 minutes. The kinase reaction is terminated by the addition of 50 μL Stop Buffer (20 mM Tris-HCl pH 7.4, 10 mM EDTA).
75 μl/well from the reaction plate is transferred to a Multiscreen-IP plate (MultiScreen-IP plates are prepared by added 50 μL of 70% (v/v) ethanol per well and incubated for 5 minutes at room temperature. The ethanol is removed by aspiration via a MultiScreen HTS Vacuum Manifold unit (Millipore, Cat no: MSVMHT500). The plates are washed twice by adding 200 μl/well ddH2O). The MultiScreen-IP plate is incubated at room temperature for 30 minutes to allowing binding of casein to the plate. The MultiScreen-IP plates are washed three times by adding 200 μl/well 100 mM phosphoric acid solution and the gasket is carefully removed from the back of the MultiScreen-IP plate and the plate dried in the oven for 30 minutes. The MultiScreen-IP plate is backsealed, 50 μL of Microscint™20 is added, then the plates are topsealed and radiolabelled casein detected and quantified on a TopCount™ plate-reader using the ^33P scintillation protocol.

pIC50: −log10 of the molar value.

On to `Oc1cccc(CNc2cc(-c3cncc(Br)c3)cc(-c3ccccn3)n2)c1` [Example 1.23, 3-[(5″-Bromo-[2,2′;4′,3″]terpyridin-6′-ylamino)-methyl]-phenol], for which the pIC50 is 6.67.

In turn, `c1ccc(-c2cc(-c3cccnc3)cc(NCCc3c[nH]c4ccccc34)n2)nc1` [Example 1.10, [2-(1H-Indol-3-yl)-ethyl]-[2,2′;4′,3″]terpyridin-6′-yl-amine] gave a pIC50 of 7.24.

In turn, `CCNc1cc(-c2cncc(-c3cccc(CN4CCN(C(C)(C)C)CC4)c3)c2)cc(-c2ccccn2)n1` [Example 2.111, {5″-[3-(4-tert-Butyl-piperazin-1-ylmethyl)-phenyl]-[2,2′;4′,3″]terpyridin-6′-yl}-ethyl-amine] gave a pIC50 of 6.81.

Consider `CN(C)[C@@H]1CCN(Cc2ccc(-c3cncc(-c4cc(NC5CC5)nc(-c5ccccn5)c4)c3)cc2)C1` [Example 2.62, Cyclopropyl-{5″-[4-((R)-3-dimethylamino-pyrrolidin-1-ylmethyl)-phenyl]-[2,2′;4′,3″]terpyridin-6′-yl}-amine], for which the pIC50 was 6.63.

As for `CNc1cc(-c2cncc(-c3ccc(N4CCN(C)CC4)cc3)c2)cc(-c2ccccn2)n1` [Example 2.2, Methyl-{5″-[4-(4-methyl-piperazin-1-yl)-phenyl]-[2,2′;4′,3″]terpyridin-6′-yl}-amine], the pIC50 is 7.52.

`Nc1cc(-c2cncc(-c3ccc(CN4CCNCC4)cc3)c2)cc(-c2ccccn2)n1` [Example 2.159, 5″-(4-piperazin-1-ylmethyl-phenyl)-[2,2′;4′,3″]terpyridin-6′-ylamine]: the pIC50 is 7.62.

Molecule `CCNc1cc(-c2cncc(-c3cc(C)cc(CN)c3)c2)cc(-c2ccccn2)n1` [Example 2.116, [5″-(3-Aminomethyl-5-methyl-phenyl)-[2,2′;4′,3″]terpyridin-6′-yl]-ethyl-amine] showed a pIC50 of 7.32.

Turning to `CC(C)N1CCN(Cc2ccc(-c3cncc(-c4cc(-c5ccccn5)nc(C(C)(C)O)c4)c3)cc2)CC1` [Example 2.80, 2-(5″-[4-(4-Isopropyl-piperazin-1-ylmethyl)-phenyl]-[2,2′;4′,3″]terpyridin-6′-yl)-propan-2-ol], the negative logarithm of the IC50 (pIC50) is 7.41.

Take `CC(C)(O)c1cc(-c2cncc(-c3cnn(C4CCOCC4)c3)c2)cc(-c2ccccn2)n1` [Example 2.84, 2-{5″-[1-(Tetrahydro-pyran-4-yl)-1H-pyrazol-4-yl]-[2,2′;4′,3″]terpyridin-6′-yl}-propan-2-ol]: the pIC50 was 7.70.

`CC(C)(C)N1CCN(Cc2cccc(-c3cncc(-c4cc(NC5CC5)nc(-c5ccccn5)c4)c3)c2)CC1` [Example 2.119, {5″-[3-(4-tert-Butyl-piperazin-1-ylmethyl)-phenyl]-[2,2′;4′,3″]terpyridin-6′-yl}-cyclopropyl-amine] showed a pIC50 of 7.19.

With `CC(C)N1CCC(n2cc(-c3cncc(-c4cc(-c5ccccn5)nc(C(C)(C)O)c4)c3)cn2)CC1` [Example 2.89], the pIC50 is 7.77.

In turn, `CNc1cc(-c2cncc(-c3ccc(C(=O)N4CCN(C)CC4)cc3)c2)cc(-c2cccc(C)n2)n1` [Example 2.28, [4-(6-Methyl-6′-methylamino-[2,2′;4′,3″]terpyridin-5″-yl)-phenyl]-(4-methyl-piperazin-1-yl)-methanone] showed a pIC50 of 7.28.

In turn, `CNc1cc(-c2cncc(-c3cccc(CN4CCN(C)CC4)c3)c2)cc(-c2ccccn2)n1` [Example 2.23, Methyl-{5″-[3-(4-methyl-piperazin-1-ylmethyl)-phenyl]-[2,2′;4′,3″]terpyridin-6′-yl}-amine] had a pIC50 of 7.80.

As for `[2H]C([2H])([2H])N1CCN(Cc2ccc(-c3cncc(-c4cc(-c5ccccn5)nc(C(C)(C)O)c4)c3)cc2)CC1` [Example 2.85, 2-{5″-[4-(4-Methyl-d3-piperazin-1-ylmethyl)-phenyl]-[2,2′;4′,3″]terpyridin-6′-yl}-propan-2-ol], the pIC50 is 7.13.

Turning to `[2H]C([2H])([2H])Nc1cc(-c2cncc(-c3ccc(CN4CCNCC4)cc3)c2)cc(-c2ccccn2)n1` [Example 2.102, Methyl-d3-[5″-(4-piperazin-1-ylmethyl-phenyl)-[2,2′;4′,3″]terpyridin-6′-yl]-amine], the pIC50 is 7.85.

`[2H]C([2H])([2H])Nc1cc(-c2cncc(-c3ccc(CN4CCN(C(C)C)CC4)cc3)c2)cc(-c2ccccn2)n1` [Example 2.100, {5″-[4-(4-Isopropyl-piperazin-1-ylmethyl)-phenyl]-[2,2′;4′,3″]terpyridin-6′-yl}-methyl-d3-amine]: the pIC50 is 7.96.

Molecule `CNc1cc(-c2cncc(-c3cnn(C4CCNCC4)c3)c2)cc(-c2ccn(C)n2)n1` [Example 2.179, Methyl-[6′-(1-methyl-1H-pyrazol-3-yl)-5-(1-piperidin-4-yl-1H-pyrazol-4-yl)-[3,4′]bipyridinyl-2′-yl]-amine] showed a pIC50 of 8.30.

Consider `CC1CN(C(=O)c2ccc(-c3cncc(-c4cc(-c5ccccn5)nc(C(C)(C)O)c4)c3)cc2)CC(C)N1C` (centres unmarked) [Example 2.87, {4-[6′-(1-Hydroxy-1-methyl-ethyl)-[2,2′;4′,3″]terpyridin-5″-yl]-phenyl}-(3,4,5-trimethyl-piperazin-1-yl)-methanone], for which the pIC50 is 6.86.

The molecule `CC(C)Nc1cc(-c2cncc(-c3ccc(CN4CCN(C(C)(C)C)CC4)cc3)c2)cc(-c2ccccn2)n1` [Example 2.134, {5″-[4-(4-tert-Butyl-piperazin-1-ylmethyl)-phenyl]-[2,2′;4′,3″]terpyridin-6′-yl}-isopropyl-amine] gave a pIC50 of 7.66.

Molecule `CC(C)(O)c1cc(-c2cncc(-c3cnn(C4CCNCC4)c3)c2)cc(-c2ccccn2)n1` [Example 2.88, 2-[5″-(1-Piperidin-4-yl-1H-pyrazol-4-yl)-[2,2′;4′,3″]terpyridin-6′-yl]-propan-2-ol] had a pIC50 of 7.66.

As to `c1cncc(-c2cc(NCCc3c[nH]c4ccccc34)nc(-c3ccco3)c2)c1` [Example 1.1, (6′-Furan-2-yl-[3,4′]bipyridinyl-2′-yl)-[2-(1H-indol-3-yl)-ethyl]-amine], the pIC50 was 7.80.

Molecule `CNc1cc(-c2cncc(-c3ccc(CN4CCNCC4)cc3)c2)cc(-c2ccccn2)n1` [Example 2.172, Methyl-[5″-(4-piperazin-1-ylmethyl-phenyl)-[2,2′;4′,3″]terpyridin-6′-yl]-amine] gave a pIC50 of 8.00.

With `CC(C)Nc1cc(-c2cncc(-c3cccc(CN4CCN(C(C)(C)C)CC4)c3)c2)cc(-c2ccccn2)n1` [Example 2.133, {5″-[3-(4-tert-Butyl-piperazin-1-ylmethyl)-phenyl]-[2,2′;4′,3″]terpyridin-6′-yl}-isopropyl-amine], the pIC50 is 6.45.

Take `CCNc1cc(-c2cncc(-c3cccc(CN4CCN(C(C)C)CC4)c3)c2)cc(-c2ccccn2)n1` [Example 2.114, Ethyl-{5″-[3-(4-isopropyl-piperazin-1-ylmethyl)-phenyl]-[2,2′;4′,3″]terpyridin-6′-yl}-amine]: the pIC50 is 7.38.

Take `c1ccc(-c2cc(-c3cncc(-c4ccc(CN5CCNCC5)cc4)c3)cc(NC3CC3)n2)nc1` [Example 2.70, Cyclopropyl-[5″-(4-piperazin-1-ylmethyl-phenyl)-[2,2′;4′,3″]terpyridin-6′-yl]-amine]: the pIC50 is 7.05.

The molecule `Cc1cccc(-c2cc(-c3cncc(-c4ccc(CO)cc4)c3)cc(NC3CC3)n2)n1` [Example 2.69, [4-(6′-Cyclopropylamino-6-methyl-[2,2′;4′,3″]terpyridin-5″-yl)-phenyl]-methanol] showed a pIC50 of 7.55.

What is called pIC50 is the IC50 on a negative log10 scale, so that one unit is a factor of ten. Read a low pIC50 as a large IC50.
